In patent publication US10632121B2, “Platelet-derived growth factor receptor mutations and compositions and methods relating thereto” (MEMORIAL SLOAN KETTERING CANCER CENTER, priority 2014, dated 2020):

Tested on: H1703 human non-small cell lung cancer cells (PDGFRA amplified)
Assay: Cell proliferation and viability (Vi-Cell, trypan blue), H1703
Format: cell-based
Conditions: H1703, five day treatment
Experimental: Growth assays performed on adherent cell lines were trypsanized, counted, and plated into 6 cm dishes. The next day media was removed, and replaced with reduced serum media (5% FBS) with drug or vehicle in triplicate for each concentration. After five days in culture, cells were analyzed in the same manner as non-adherent lines.
SAR408 and SAR409 were provided by Sanofi. […] Antibodies for western blots were from Cell Signaling Technology with the following exceptions: actin (Sigma), total PDGFRA (Santa Cruz), and V5 epitope (Invitrogen). Western Blots were performed after four hours of drug treatment unless indicated otherwise. Electroluminescence was used to quantify phosphorylation of Akt and S6 ribosomal protein (FIG. 1B) (Meso Scale Discovery cat # K15100D-1 and cat # K150DGD-1). Cell Proliferation and Viability Assays were performed using a Beckman Coulter Vi-Cell XR Cell Viability Analyzer after five days of drug treatment unless indicated otherwise.

CCn1c(=O)c(-c2cc[nH]n2)cc2c(C)nc(N)nc21 [SAR409, voxtalisib]
cell death (% Trypan blue positive cells): induction of cell death
proliferation / growth inhibition: potent growth inhibition
